Earlier results as cited in patent publication US7625888B2, “Fused triazole derivatives as dipeptidyl peptidase-IV inhibitors for the treatment or prevention of diabetes” (Merck & Co., Inc., priority 2004, dated 2009).

What was measured:
DPP-IV = target: T1, DPP-IV (Homo sapiens, UniProt P27487)
T1 construct: GRF is rapidly degraded in plasma to GRF[3-44]

hematopoiesis = details: mouse, cyclophosphamide-induced neutropenia
cardiac allograft = details: rats; doubled from day 7

T1 sequence (P27487 39-766 limits assumed, species assumed): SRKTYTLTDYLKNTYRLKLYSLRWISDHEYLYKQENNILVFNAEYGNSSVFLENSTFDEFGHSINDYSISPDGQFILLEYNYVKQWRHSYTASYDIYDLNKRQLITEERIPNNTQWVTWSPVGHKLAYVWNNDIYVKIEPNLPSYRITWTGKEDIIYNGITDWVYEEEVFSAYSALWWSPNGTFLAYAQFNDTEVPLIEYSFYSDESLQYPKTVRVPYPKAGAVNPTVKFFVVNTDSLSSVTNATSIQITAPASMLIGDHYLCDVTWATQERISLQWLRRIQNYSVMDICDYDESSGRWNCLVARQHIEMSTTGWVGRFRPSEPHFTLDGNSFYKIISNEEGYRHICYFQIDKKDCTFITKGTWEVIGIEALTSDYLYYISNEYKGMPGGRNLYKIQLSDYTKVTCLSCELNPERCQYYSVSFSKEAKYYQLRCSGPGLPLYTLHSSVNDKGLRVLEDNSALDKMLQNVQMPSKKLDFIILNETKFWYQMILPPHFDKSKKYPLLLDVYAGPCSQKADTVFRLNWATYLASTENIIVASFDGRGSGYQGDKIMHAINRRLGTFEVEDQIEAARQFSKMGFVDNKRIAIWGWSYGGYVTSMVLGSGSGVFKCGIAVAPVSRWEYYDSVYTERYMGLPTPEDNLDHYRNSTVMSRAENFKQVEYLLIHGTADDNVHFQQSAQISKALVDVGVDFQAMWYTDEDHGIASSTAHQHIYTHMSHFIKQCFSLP

Which “degradation of GRF in plasma to GRF[3-44]” value (DPP-IV) does the source give for diprotin A here?
Its value is “prevented”.

With CC(C)[C@H](N)C(=O)N1CCC[C@H]1B(O)O [Val-Boro-Pro] as the molecule, how does the effect on hematopoiesis (hematopoiesis) read?
Its effect on hematopoiesis is “stimulated hematopoiesis”.

For CC(C)N1CCC(c2ccccc2)(c2ccccc2)CC1 [Prodipine, Pro-Pro-diphenyl-phosphonate], which cardiac allograft survival (cardiac allograft) is on record?
Its cardiac allograft survival is 14 day.
